From the NIST ThermoML archive (doi:10.1016/j.jct.2016.09.030)

Assay: xn = mol fraction of the nth substance listed
Details: 100 kPa, Liquid; for viscosity: Concentric cylinders viscometry; for mass density: Vibrating tube method

CCOC(=O)CCC(=O)OCC [diethyl butanedioate] + CC(C)CO
Details	mass density, 308.15 K [kg/m3]	mass density, 313.15 K [kg/m3]	mass density, 318.15 K [kg/m3]	mass density, 323.15 K [kg/m3]	viscosity, 308.15 K [mPa·s]	viscosity, 313.15 K [mPa·s]	viscosity, 318.15 K [mPa·s]	viscosity, 323.15 K [mPa·s]
x1 = 0.0999	827.9	823.63	819.31	814.95	1.875	1.657	1.471	1.324
x1 = 0.2	860.85	856.36	851.84	847.28	1.659	1.484	1.334	1.218
x1 = 0.3001	889.88	885.22	880.53	875.82	1.574	1.418	1.283	1.175
x1 = 0.4	915.68	910.89	906.08	901.24	1.557	1.409	1.281	1.18
x1 = 0.4999	938.56	933.67	928.76	923.83	1.576	1.43	1.304	1.201
x1 = 0.5999	959.14	954.16	949.18	944.18	1.629	1.48	1.352	1.249
x1 = 0.6999	977.68	972.64	967.59	962.54	1.686	1.534	1.403	1.3
x1 = 0.8	994.51	989.42	984.32	979.22	1.775	1.614	1.476	1.366
x1 = 0.9	1009.9	1004.76	999.62	994.48	1.882	1.71	1.562	1.438
x1 = 1	1024.08	1018.9	1013.72	1008.55	2.008	1.821	1.66	1.523
